Measurements: patent publication US12662494B2, “Optically active bridged piperidine derivative” (Sumitomo Pharma Co., Ltd., priority 2018, dated 2026)

How the values were obtained:
[1] = test system: RS4; 11 cells; experiment: Test 2: inhibition of cell proliferation, RS4;11; format: cell-based; conditions: for IC50: RS4;11 cells, 7 days, PrestoBlue cell viability; for cell proliferation inhibition activity, good (in words) / cell proliferation inhibitory activity, potent (in words): summary of Test 2 table, RS4;11 and MOLM-13
Experimental: (§1) Test 2: Test for Evaluating the Inhibition of Cell Proliferation
(§2) RS4; 11 cells were obtained from American Type Culture Collection (ATCC). The cells were cultured at 37° C. in the presence of 5% CO2 in RPMI 1640 medium containing 10% fetal bovine serum and 1% penicillin/streptomycin. MOLM-13 cells were separately obtained from DSMZ (Deutsche Sammlung von Mikroorganismen und Zellkulturen GmbH). The cells were cultured at 37° C. in the presence of 5% CO2 in RPMI 1640 medium containing […] and 1% penicillin/streptomycin.
(§3) The cells were plated to a 96-well plate in 2000 cells/well, each test compound was added thereto to adjust the final concentration of DMSO to 0.1% of DMSO, and the cells were cultured for 7 days. After the cultivation, the cell viability was calculated with PrestoBlue™ Cell Viability Reagent (Invitrogen, A13261). The IC50 value was calculated from a survival curve, that corresponds to the concentration of the test compound at which the cell proliferation inhibition rate is 50%.

[2] = test system: MOLM-13 cells; experiment: Test 2: inhibition of cell proliferation, MOLM-13; format: cell-based; conditions: 7 days, PrestoBlue cell viability
Experimental: as §1, §2, §3

[3] = Test 4: pharmacokinetic study, oral, mouse; conditions: for AUC(0-t): male, NOD.CB17-Prkdcscid/J, plasma, po, 100 mg/kg; for compound-exposure in plasma (in words): summary of Test 4 table, oral 100 mg/kg
Experimental: Test 4: Pharmacokinetic Study
The test compound suspended in 0.5% methylcellulose was orally administered to 7-week-old male NOD. CB17-Prkdcscid/J mouse in a dose of 100 mg/kg. The blood sample was taken from jugular vein without anesthesia over time for 24 hours. The blood sample was centrifuged to obtain plasma. The plasma was pre-treated by methanol extraction method, and then analyzed with an LC-MS/MS to determine the concentration of the test compound. Based on the data from 0 hour after the administration until the time (t) when there was the final detection in the plasma, AUC was calculated by trapezoidal method.

| SMILES | IC50 ([1]; Homo sapiens, 168 h) | IC50 ([2]; Homo sapiens, 168 h) | IC50 [1] | IC50 [2] | cell proliferation inhibition activity, good (in words) [1] | cell proliferation inhibitory activity, potent (in words) [1] | AUC(0-t) [3] | compound-exposure in plasma (in words) [3] |
| --- | --- | --- | --- | --- | --- | --- | --- | --- |
| C=C1C[C@@H]2CC[C@H]1[C@@H](C(=O)N1CC3(C1)CN(c1c(C(F)(F)F)cnc4sc(CC(F)(F)F)cc14)C3)N2 [Example 17, [(1S,3S,4R)-5-(^2H2)methylidene-2-azabicyclo[2.2.2]octan-3-yl]{6-[2-(2,2,2-trifluoroethyl)-5-(trifluoromethyl)thieno[2,3-b]pyridin-4-yl]-2,6-diazaspiro[3.3]heptan-2-yl}methanone] | – | – | < 30 nM | < 30 nM | – | – | – | – |
| [2H]C([2H])=C1C[C@@H]2CC[C@H]1[C@@H](C(=O)N1CC3(C1)CN(c1c(C(F)(F)F)cnc4sc(CC(F)(F)F)cc14)C3)N2 [Example 17, [(1S,3S,4R)-5-(^2H2)methylidene-2-azabicyclo[2.2.2]octan-3-yl]{6-[2-(2,2,2-trifluoroethyl)-5-(trifluoromethyl)thieno[2,3-b]pyridin-4-yl]-2,6-diazaspiro[3.3]heptan-2-yl}methanone] | – | – | – | – | good cell proliferation inhibition activity | potent cell proliferation inhibitory activity | – | – |
| C=C1C[C@@H]2CC[C@H]1[C@@H](C(=O)N1CCC3(CC1)CN(c1c(C(F)(F)F)cnc4sc(CC(F)(F)F)cc14)C3)N2 [Example 21, [(1S,3S,4R)-5-(^2H2)methylidene-2-azabicyclo[2.2.2]octan-3-yl]{2-[2-(2,2,2-trifluoroethyl)-5-(trifluoromethyl)thieno[2,3-b]pyridin-4-yl]-2,7-diazaspiro[3.5]nonan-7-yl}methanone] | – | – | < 30 nM | < 30 nM | – | – | – | – |
| C=C1C[C@@H]2CC[C@H]1[C@@H](C(=O)N1CCC3(CC1)CN(c1c(C#N)cnc4sc(CC(F)(F)F)cc14)C3)N2 [Example 24, 4-{7-[(1S,3S,4R)-5-(^2H2)methylidene-2-azabicyclo[2.2.2]octane-3-carbonyl]-2,7-diazaspiro[3.5]nonan-2-yl}-2-(2,2,2-trifluoroethyl)thieno[2,3-b]pyridine-5-carbonitrile] | – | – | < 30 nM | < 30 nM | – | – | – | – |
| C=C1C[C@@H]2CC[C@H]1[C@@H](C(=O)N1CCC3(CC1)CN(c1c(C(F)(F)F)cnc4sc(CC(F)(F)F)cc14)C3)N2 [Example 27, [(1S,3S,4R)-5-Methylidene-2-azabicyclo[2.2.2]octan-3-yl]{2-[2-(2,2,2-trifluoroethyl)-5-(trifluoromethyl)thieno[2,3-b]pyridin-4-yl]-2,7-diazaspiro[3.5]nonan-7-yl}methanone] | 50 nM | 70 nM | – | – | good cell proliferation inhibition activity | potent cell proliferation inhibitory activity | 17300 ng·h/mL | good compound-exposure in plasma |

Now from value to compound, other results behind:

| IC50 ([1]; Homo sapiens, 168 h) | IC50 ([2]; Homo sapiens, 168 h) | SMILES | IC50 [1] | IC50 [2] | cell proliferation inhibition activity, good (in words) [1] | cell proliferation inhibitory activity, potent (in words) [1] | AUC(0-t) [3] | compound-exposure in plasma (in words) [3] |
| --- | --- | --- | --- | --- | --- | --- | --- | --- |
| < 30 nM | 30 nM | O=C([C@H]1N[C@H]2CC[C@@H]1C[C@@H]2CC1CC1)N1CCC2(CC1)CN(c1c(C(F)(F)F)cnc3sc(CC(F)(F)F)cc13)C2 [Example 22, [(1S,3S,4R,6S)-6-(cyclopropylmethyl)-2-azabicyclo[2.2.2]octan-3-yl]{2-[2-(2,2,2-trifluoroethyl)-5-(trifluoromethyl)thieno[2,3-b]pyridin-4-yl]-2,7-diazaspiro[3.5]nonan-7-yl}methanone] | – | – | good cell proliferation inhibition activity | potent cell proliferation inhibitory activity | – | – |
| 100 nM | 110 nM | C=C1C[C@@H]2C[C@H]1[C@@H](C(=O)N1CCC3(CC1)CN(c1c(C(F)(F)F)cnc4sc(CC(F)(F)F)cc14)C3)N2 [Example 23, [(1S,3S,4R)-5-methylidene-2-azabicyclo[2.2.1]heptan-3-yl]{2-[2-(2,2,2-trifluoroethyl)-5-(trifluoromethyl)thieno[2,3-b]pyridin-4-yl]-2,7-diazaspiro[3.5]nonan-7-yl}methanone] | – | – | – | – | – | – |
| < 30 nM | 40 nM | N#Cc1cnc2sc(CC(F)(F)F)cc2c1N1CC2(CCN(C(=O)[C@H]3N[C@H]4CC[C@@H]3C[C@@H]4CC3CC3)CC2)C1 [Example 25, 4-{7-[(1S,3S,4R,6S)-6-(cyclopropylmethyl)-2-azabicyclo[2.2.2]octane-3-carbonyl]-2,7-diazaspiro[3.5]nonan-2-yl}-2-(2,2,2-trifluoroethyl)thieno[2,3-b]pyridine-5-carbonitrile] | – | – | good cell proliferation inhibition activity | potent cell proliferation inhibitory activity | – | – |
| 300 nM | 300 nM | C=C1C[C@@H]2C[C@H]1[C@@H](C(=O)N1CCC3(CC1)CN(c1c(C#N)cnc4sc(CC(F)(F)F)cc14)C3)N2 [Example 26, 4-{7-[(1S,3S,4R)-5-methylidene-2-azabicyclo[2.2.1]heptane-3-carbonyl]-2,7-diazaspiro[3.5]nonan-2-yl}-2-(2,2,2-trifluoroethyl)thieno[2,3-b]pyridine-5-carbonitrile] | – | – | – | – | – | – |
| 70 nM | 60 nM | C=C1C[C@@H]2CC[C@H]1[C@@H](C(=O)N1CCC3(CC1)CN(c1c(C#N)cnc4sc(CC(F)(F)F)cc14)C3)N2 [Example 28, 4-{7-[(1S,3S,4R)-5-Methylidene-2-azabicyclo[2.2.2]octane-3-carbonyl]-2,7-diazaspiro[3.5]nonan-2-yl}-2-(2,2,2-trifluoroethyl)thieno[2,3-b]pyridine-5-carbonitrile] | – | – | – | – | 11600 ng·h/mL | good compound-exposure in plasma |
